From ChEMBL document CHEMBL5728881, “Substituted 6-azabenzimidazole compounds” (2021)

Target: Mitogen-activated protein kinase kinase kinase kinase 1 (Homo sapiens, UniProt Q92918)
Test: TBHPK1 IC50 Assay: Ten nanoliters of test compounds dissolved in DMSO at various concentrations were dispensed into a 384-well ProxiPlate (PerkinElmer #6008289). Five microliters of a solution of recombinant HPK1 diluted in HPK1 kinase assay buffer (50 mM BES [N,N-Bis(2-hydroxyethyl)-2-aminoethanesulfonic acid], pH 7.0; 10 mM magnesium chloride; 0.01% Triton X-100; 1 mM dithiothreitol; 0.01% bovine serum albumin; 0.1 mM sodium orthovanadate) was added to the compound-containing plate and was incubated for 15 minutes at 25° C. Five microliters of a mixture of ATP (Sigma-Aldrich #A6559) and peptide substrate STK S1 (Cisbio #61ST1BLC) diluted in HPK1 kinase assay buffer was then added to start the reaction. Final concentrations were 0.15 nM for HPK1, 10 μM for ATP, and 1 μM for the STK S1 peptide substrate. The reaction mixture was incubated at 25° C. for 3 hours and was stopped with the addition of 10 μl of an EDTA (Ethylenediaminetetraacetic acid)-containing detection buffer (Cisbio #62SDBRDF) supplemented with Europium cryptate-labeled anti-phospho-serine/threonine antibodies (Cisbio #62ST1PEJ) and XL665-labeled streptavidin (Cisbio #610SAXLG). The mixture was incubated for 16 hours at room temperature and peptide phosphorylation was measured by time-resolved fluorescence energy transfer (665 nm/620 nm) on an Envision plate reader (PerkinElmer).

Mitogen-activated protein kinase kinase kinase kinase 1, sequence (Q92918 whole entry): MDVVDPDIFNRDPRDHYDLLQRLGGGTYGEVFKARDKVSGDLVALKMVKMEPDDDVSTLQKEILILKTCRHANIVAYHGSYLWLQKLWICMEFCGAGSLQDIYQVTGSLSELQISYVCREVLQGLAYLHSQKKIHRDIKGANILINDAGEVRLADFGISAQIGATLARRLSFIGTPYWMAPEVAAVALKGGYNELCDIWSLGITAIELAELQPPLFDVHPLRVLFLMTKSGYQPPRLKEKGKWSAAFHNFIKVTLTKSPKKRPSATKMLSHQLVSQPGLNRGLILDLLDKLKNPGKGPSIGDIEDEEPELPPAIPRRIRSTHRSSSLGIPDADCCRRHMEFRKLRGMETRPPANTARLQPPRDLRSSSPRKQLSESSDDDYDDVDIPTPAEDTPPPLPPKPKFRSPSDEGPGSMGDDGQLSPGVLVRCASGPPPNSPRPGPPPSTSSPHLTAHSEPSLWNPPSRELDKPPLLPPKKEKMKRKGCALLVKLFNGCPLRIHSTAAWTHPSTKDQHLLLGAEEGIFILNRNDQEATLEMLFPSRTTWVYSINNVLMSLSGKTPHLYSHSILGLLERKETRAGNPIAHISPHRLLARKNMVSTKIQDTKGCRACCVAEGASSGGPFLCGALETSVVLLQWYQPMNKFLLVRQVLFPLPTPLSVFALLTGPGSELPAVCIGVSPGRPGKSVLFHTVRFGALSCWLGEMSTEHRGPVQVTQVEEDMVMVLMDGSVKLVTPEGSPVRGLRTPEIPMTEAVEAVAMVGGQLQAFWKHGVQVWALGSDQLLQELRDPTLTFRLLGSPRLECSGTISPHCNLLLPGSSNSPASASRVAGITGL

SMILES | IC50 [pM]
CC(C)n1cnc2cc(-c3cnc4c(c3)N([C@H]3C[C@](C)(N5CCC6CC6C5)C3)C(=O)C4(C)C)nc(Nc3cc(C(=O)NC4(CF)CC4)c(Cl)c(F)c3F)c21 (some centres not stated) | 90
CNC(=O)c1cc(Nc2nc(-c3ccc4c(c3)N([C@H]3C[C@@H](N5CC[C@H](C(F)F)C5)C3)C(=O)C4(C)C)cc3ncn(C(C)C)c23)ccc1C | 200
